Biological target: T1, SARS2 protease (Severe acute respiratory syndrome coronavirus 2, UniProt P0DTD1)
T1 construct: SARS2 protease was added to a final concentration of 30 nM
Assay: SARS-CoV-2 protease inhibition assay (SARS2 FRET protease assay)
Format: biochemical
Conditions: IC50 (μM), SARS2 protease 30 nM, peptide substrate 1.3 μM, 120 minutes at 37° C., compounds 20 μM to 0.075 nM

Point of comparison: `CC(C)C[C@H](NC(=O)OC(c1ccccc1)C(F)(F)c1cccc(F)c1)C(=O)N[C@@H](C[C@@H]1CCNC1=O)C(=O)C(=O)NC1CC1` (stereo partly drawn) [Compound A10], IC50 0.005 µM. Against it:
- CCCC[C@H](NC(=O)OC(c1ccccc1)C(F)(F)c1cccc(F)c1)C(=O)N[C@@H](CC1CCNC1=O)C(=O)C(=O)NCC (stereo in doubt) [Compound A173, 2,2-difluoro-2-(3-fluorophenyl)-1-phenylethyl ((S)-1-(((S)-4-(ethylamino)-3,4-dioxo-1-((S)-2-oxopyrrolidin-3-yl)butan-2-yl)amino)-1-oxohexan-2-yl)carbamate] — 7.7-fold higher, 0.0386 µM
- CC(C)C[C@H](NC(=O)OC(c1ccc(F)cc1)C(F)(F)c1cccc(Cl)c1)C(=O)N[C@H](C=O)C[C@@H]1CCNC1=O (stereo partly drawn) [Compound A1] — 50-fold lower, 0.0001 µM
- CC(C)C[C@H](NC(=O)OC(c1ccccc1)C(F)(F)c1cccc(F)c1)C(=O)N[C@H](C=O)C[C@@H]1CCNC1=O (stereo partly drawn) [Compound A2] — within 1.5-fold, 0.004 µM
- CC(C)C[C@H](NC(=O)OC(c1ccccc1)C1(c2cccc(Cl)c2)CCCCC1)C(=O)N[C@@H](C[C@@H]1CCNC1=O)C(=O)C(=O)NC1CC1 (stereo partly drawn) [Compound A3] — 100-fold higher, 0.52 µM
- CC(C)C[C@H](NC(=O)O[C@@H](c1ccccc1)C(C)(C)c1cccc(Cl)c1)C(=O)N[C@@H](C[C@@H]1CCNC1=O)C(=O)C(=O)NC1CC1 [Compound A4] — 160-fold higher, 0.8 µM
- CC(C)C[C@H](NC(=O)O[C@H](c1ccccc1)C(C)(C)c1cccc(Cl)c1)C(=O)N[C@@H](C[C@@H]1CCNC1=O)C(=O)C(=O)NC1CC1 [Compound A5] — 560-fold higher, 2.79 µM
- CCC(CC)(c1cccc(Cl)c1)C(OC(=O)N[C@@H](CC(C)C)C(=O)N[C@@H](C[C@@H]1CCNC1=O)C(=O)C(=O)NC1CC1)c1ccccc1 (stereo partly drawn) [Compound A6] — 48-fold higher, 0.24 µM
- CC(C)C[C@H](NC(=O)OC(c1cccc(Cl)c1)C1(c2cccc(Cl)c2)CCC1)C(=O)N[C@H](C=O)C[C@@H]1CCNC1=O (stereo partly drawn) [Compound A7] — 24-fold higher, 0.12 µM
- CCCCCOC(=O)N[C@@H](CC(C)C)C(=O)N[C@@H](C[C@@H]1CCNC1=O)C(=O)C(=O)NC1CCN(C)CC1 [Compound A8] — 3000-fold higher, 15 µM
- CC(C)C[C@H](NC(=O)O[C@H](c1ccc(F)cc1)C(F)(F)c1cccc(Cl)c1)C(=O)N[C@@H](C[C@@H]1CCNC1=O)C(=O)C(=O)NC1CC1 [Compound A9] — 50-fold lower, 0.0001 µM
- CC(C)C[C@H](NC(=O)OC(c1cccc(F)c1)C(C)(C)c1cccc(Cl)c1)C(=O)N[C@H](C=O)C[C@@H]1CCNC1=O (stereo partly drawn) [Compound A11] — 50-fold lower, 0.0001 µM
- CCCCCOC(=O)N[C@@H](CC(C)C)C(=O)N[C@@H](C[C@@H]1CCNC1=O)C(=O)C(=O)NC1CC1 [Compound A12] — 180-fold higher, 0.876 µM
- CCCCCOC(=O)N[C@@H](CC(C)C)C(=O)N[C@H](C=O)C[C@@H]1CCNC1=O [Compound A13] — 16-fold higher, 0.08 µM
- CCC(CC)(c1cccc(Cl)c1)C(OC(=O)N[C@@H](CC(C)C)C(=O)N[C@@H](C[C@@H]1CCNC1=O)C(=O)C(=O)NC1CC1)c1ccc(F)cc1 (stereo partly drawn) [Compound A14] — 18-fold higher, 0.09 µM
- CC(C)C[C@H](NC(=O)O[C@H](c1cccc(F)c1)C(C)(C)c1cccc(Cl)c1)C(=O)N[C@@H](C[C@@H]1CCNC1=O)C(=O)C(=O)NC1CC1 [Compound A15] — 62-fold higher, 0.31 µM
- CC(C)C[C@H](NC(=O)OC(c1cccc(Cl)c1)C1(c2cccc(Cl)c2)CCC1)C(=O)N[C@@H](C[C@@H]1CCNC1=O)C(=O)C(=O)NC1CC1 (stereo partly drawn) [Compound A16] — 76-fold higher, 0.38 µM
- CCN1CCC(NC(=O)C(=O)[C@H](C[C@@H]2CCNC2=O)NC(=O)[C@H](CC(C)C)NC(=O)OC(c2ccccc2)C(CC)(CC)c2cccc(Cl)c2)CC1 (stereo partly drawn) [Compound A17] — 6100-fold higher, 30.3 µM
- CCC(CC)(c1cccc(Cl)c1)C(OC(=O)N[C@@H](CC(C)C)C(=O)N[C@H](C=O)C[C@@H]1CCNC1=O)c1ccc(F)c(F)c1 (stereo partly drawn) [Compound A18] — 2-fold higher, 0.01 µM
- CCCCC[C@H](NC(=O)OC(c1ccccc1)C(F)(F)c1cccc(Cl)c1)C(=O)N[C@H](C=O)C[C@@H]1CCNC1=O (stereo partly drawn) [Compound A19] — within 1.5-fold, 0.007 µM
- O=C[C@H](C[C@@H]1CCNC1=O)NC(=O)[C@H](CC1CCCCC1)NC(=O)OC(c1ccccc1)C(F)(F)c1cccc(Cl)c1 (stereo partly drawn) [Compound A20] — 17-fold lower, 0.0003 µM

Reference: patent US20240398757A1 (COCRYSTAL PHARMA, INC., priority 2022, published 2024)
